Test systems include A498; PC-3; RXF 393; HOP-62; NCI-H522; COLO 205; SK-OV-3; IGROV-1; OVCAR-4; HCC 2998; HCT-116; NCI-H460; MDA-N; KM12; A549; RPMI-8226; NCI/ADR-RES; SW-620; UACC-257; SK-MEL-28.
Holding throughout (assay): NCI anticancer screen, dose series, 48 h

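Where inhibition never reached the appropriate level, the endpoint shown equals the highest concentration tested. Otherwise, values were interpolated linearly from a five-concentration, 48-hour dose response in 96-well plates. GI50 = concentration required for 50% inhibition of growth.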 Activity calls are given as the source filed them. Cut-off read from the data, not from the text of the source: active = GI50 up to about 1.1 µM and inactive = higher.

With `O=C(O)CCS/C(=C\C(SCCC(=O)O)c1ccc(Cl)cc1)c1ccc(Cl)cc1` (stereo not given), the GI50 in the assay with A498 was 19.7 µM (inactive); in the assay on PC-3 it was 61 µM (inactive); in the assay with RXF 393, 39.7 µM (inactive); in the assay on HOP-62 it was 37.5 µM (inactive); with NCI-H522, 33.5 µM (inactive); with COLO 205, 21.4 µM (inactive). For the same molecule, the GI50 in the assay with SK-OV-3 was > 100 µM (inactive); with IGROV-1 it was 38.8 µM (inactive); in the assay on OVCAR-4, 41.2 µM (inactive); in the assay with HCC 2998, 24.2 µM (inactive); with HCT-116, 21.4 µM (inactive); in the assay with NCI-H460, 50.1 µM (inactive). Moreover, the GI50 was 36.6 µM (inactive) with MDA-N; 25.6 µM (inactive) in the assay on KM12; 57.1 µM (inactive) with A549; 31 µM (inactive) with RPMI-8226; > 100 µM (inactive) in the assay on NCI/ADR-RES; 28.1 µM (inactive) in the assay with SW-620. For the same molecule, the GI50 is > 100 µM (inactive) with UACC-257 and 45.1 µM (inactive) in the assay on SK-MEL-28.

Turning to `CNC(=O)N(CCC#N)CCN(C(=O)NC)c1ccccc1`, the GI50 in the assay on A498, in the assay on PC-3, in the assay with RXF 393, in the assay with HOP-62, in the assay on NCI-H522 and in the assay with COLO 205 was > 100 µM (inactive) each time. Moreover, the GI50 in the assay with SK-OV-3, with IGROV-1, with OVCAR-4, with HCC 2998, with HCT-116 and in the assay on NCI-H460 was > 100 µM (inactive) each time. The GI50 in the assay on MDA-N, in the assay on KM12, in the assay with A549, with RPMI-8226, in the assay on NCI/ADR-RES and with SW-620 was > 100 µM (inactive) each time. The GI50 with UACC-257 and in the assay on SK-MEL-28 was > 100 µM (inactive) in each case.

Turning to `O=C(Nc1ccccc1)N1CC(CN2CCN(c3ccccc3)CC2)OC1=O` (stereo not given), the GI50 in the assay with A498 is > 100 µM (inactive); with PC-3, > 100 µM (inactive); in the assay with RXF 393, > 100 µM (inactive); with HOP-62 it was > 100 µM (inactive); with NCI-H522, 80.9 µM (inactive); in the assay with COLO 205 it was > 100 µM (inactive). Moreover, the GI50 was > 100 µM (inactive) in the assay on SK-OV-3; 46.3 µM (inactive) in the assay on IGROV-1; > 100 µM (inactive) in the assay on OVCAR-4; > 100 µM (inactive) in the assay with HCC 2998; > 100 µM (inactive) with HCT-116; > 100 µM (inactive) with NCI-H460. In addition, the GI50 in the assay with MDA-N, in the assay with KM12, in the assay with A549, in the assay with RPMI-8226, in the assay on NCI/ADR-RES and in the assay on SW-620 was > 100 µM (inactive) each time. For the same molecule, the GI50 in the assay on UACC-257 and with SK-MEL-28 was > 100 µM (inactive) in each case.

Take `CC1(C)OC2OC(C(=O)c3ccccc3)C3OC(C)(C)OC3C2O1` (stereo not given): the GI50 in the assay with A498, with PC-3, in the assay with RXF 393, in the assay with HOP-62, in the assay with NCI-H522 and in the assay on COLO 205 was > 100 µM (inactive) each time. Moreover, the GI50 in the assay on SK-OV-3, in the assay with IGROV-1, in the assay with OVCAR-4, in the assay on HCC 2998, in the assay with HCT-116 and in the assay on NCI-H460 was > 100 µM (inactive) throughout. Moreover, the GI50 with MDA-N, in the assay with KM12, in the assay with RPMI-8226, in the assay on NCI/ADR-RES, in the assay with SW-620 and in the assay with UACC-257 was > 100 µM (inactive) throughout.

For the molecule `O=C1C[C@@]23CCC4(CC2CCC[C@H]3O1)OCCO4` (stereo not given in full), the GI50 in the assay on A498, in the assay on PC-3, with RXF 393, with HOP-62, in the assay on NCI-H522 and in the assay with COLO 205 was > 100 µM (inactive) throughout. In addition, the GI50 in the assay on SK-OV-3, in the assay on IGROV-1, in the assay with OVCAR-4, in the assay with HCC 2998, in the assay on HCT-116 and with NCI-H460 was > 100 µM (inactive) throughout. For the same molecule, the GI50 in the assay on MDA-N, in the assay with KM12, in the assay with A549, in the assay with RPMI-8226, with NCI/ADR-RES and in the assay with SW-620 was > 100 µM (inactive) in each case. Besides, the GI50 with UACC-257 and in the assay with SK-MEL-28 was > 100 µM (inactive) in each case.

On to `[O-]/[N+](=N/c1ncc(-c2ccccc2)cn1)c1ncc(-c2ccccc2)cn1`, for which the GI50 is > 100 µM (inactive) with A498; 92.7 µM (inactive) in the assay on PC-3; 60.5 µM (inactive) with RXF 393; > 100 µM (inactive) in the assay on HOP-62; 14.8 µM (inactive) in the assay on NCI-H522; > 100 µM (inactive) in the assay with COLO 205. The GI50 in the assay on SK-OV-3 is > 100 µM (inactive); in the assay on IGROV-1 it was 29.9 µM (inactive); with OVCAR-4, 54.6 µM (inactive); in the assay with HCC 2998, > 100 µM (inactive); in the assay with HCT-116 it was 31.6 µM (inactive); with NCI-H460 it was > 100 µM (inactive). In addition, the GI50 was > 100 µM (inactive) in the assay with MDA-N; 67.6 µM (inactive) in the assay with KM12; > 100 µM (inactive) in the assay with A549; > 64.6 µM (inactive) in the assay on RPMI-8226; 62.1 µM (inactive) with NCI/ADR-RES; > 95.7 µM (inactive) with SW-620. The GI50 in the assay with UACC-257 was > 100 µM (inactive); in the assay on SK-MEL-28 it was > 61.9 µM (inactive).

Regarding `CSc1c(C#N)c(=O)n(N)c2[nH]nc(C)c12`, the GI50 in the assay on A498 is 91.6 µM (inactive); in the assay on PC-3, > 100 µM (inactive); with RXF 393 it was > 100 µM (inactive); in the assay with NCI-H522, > 100 µM (inactive); in the assay with COLO 205, > 100 µM (inactive); with SK-OV-3 it was > 100 µM (inactive). Also, the GI50 in the assay on OVCAR-4, in the assay with HCC 2998, in the assay on HCT-116, in the assay on NCI-H460, with MDA-N and in the assay on KM12 was > 100 µM (inactive) each time. In addition, the GI50 with A549, in the assay on RPMI-8226, in the assay on NCI/ADR-RES, in the assay with SW-620, with UACC-257 and with SK-MEL-28 was > 100 µM (inactive) each time.

In the case of `COc1ccc(C(=O)N=C2N(c3ccccc3)C(=N/c3ccccc3)/C(=N\c3ccccc3)N2c2ccccc2)cc1`, the GI50 in the assay on A498 is 19.2 µM (inactive); in the assay on PC-3, 16.8 µM (inactive); in the assay on RXF 393, 2.26 µM (inactive); with HOP-62, 8.63 µM (inactive); in the assay with NCI-H522 it was 30.7 µM (inactive); in the assay on COLO 205, > 100 µM (inactive). Besides, the GI50 in the assay on SK-OV-3 was 33.7 µM (inactive); with IGROV-1 it was 54 µM (inactive); in the assay with OVCAR-4, 21.9 µM (inactive); in the assay with HCC 2998, > 85.7 µM (inactive); in the assay with HCT-116, 36.1 µM (inactive); in the assay with NCI-H460, 47.1 µM (inactive). Also, the GI50 in the assay with MDA-N was 19.2 µM (inactive); with KM12, > 61.2 µM (inactive); in the assay on A549 it was 30.3 µM (inactive); in the assay on RPMI-8226 it was > 74.6 µM (inactive); with NCI/ADR-RES it was > 100 µM (inactive); with SW-620, 99.8 µM (inactive). For the same molecule, the GI50 is 48.2 µM (inactive) in the assay on UACC-257 and 18.3 µM (inactive) with SK-MEL-28.

As for `CC(CC(C)[C@H]1CCC2[C@H]3C(CC[C@@]21C)[C@@]1(C)CCC(O)C[C@H]1C[C@@H]3O)C(=O)O` (stereo not given in full), the GI50 with A498, in the assay on PC-3, with RXF 393, in the assay on HOP-62, with NCI-H522 and with COLO 205 was > 100 µM (inactive) throughout. The GI50 with IGROV-1, in the assay with OVCAR-4, with HCC 2998, in the assay on HCT-116, in the assay on NCI-H460 and in the assay on MDA-N was > 100 µM (inactive) in each case. Further, the GI50 in the assay with KM12, in the assay with A549, with RPMI-8226, in the assay on NCI/ADR-RES, in the assay on SW-620 and with UACC-257 was > 100 µM (inactive) throughout. Besides, the GI50 in the assay on SK-MEL-28 was > 100 µM (inactive).

Turning to `Nc1ncnc2c1ncn2C1C=C(CO)C(O)C1O` (stereo not given), the GI50 in the assay on A498 was 15.9 µM (inactive); in the assay on PC-3 it was 6.92 µM (inactive); in the assay on RXF 393, 9.59 µM (inactive); with HOP-62 it was 3.26 µM (inactive); in the assay with NCI-H522, 3.99 µM (inactive); in the assay on COLO 205, 3.32 µM (inactive). For the same molecule, the GI50 is 8.18 µM (inactive) in the assay on SK-OV-3; 7.74 µM (inactive) with IGROV-1; 6.24 µM (inactive) with OVCAR-4; 4.72 µM (inactive) in the assay with HCC 2998; 0.0509 µM (active) in the assay with HCT-116; 0.637 µM (active) in the assay with NCI-H460. Moreover, the GI50 in the assay with MDA-N was 3.37 µM (inactive); with KM12 it was 0.264 µM (active); with A549 it was 14.9 µM (inactive); with RPMI-8226, 0.256 µM (active); in the assay with NCI/ADR-RES it was 5.61 µM (inactive); in the assay with SW-620, 2.06 µM (inactive). Further, the figures for the GI50 in the assay with UACC-257 and in the assay with SK-MEL-28 were 1.35 µM (inactive) and 1.23 µM (inactive), respectively.

The record behind these values is ChEMBL document CHEMBL1201862, “PubChem BioAssay data set” (2004).
